Test results as given in patent US9321756B2, “Azole compounds as PIM inhibitors” (priority 2011, dated 2016).
Like-named read-outs stand apart in the source and are kept apart here.

Assays:
KMS-12-BM myeloma cells = assay: Pim cell assay KMS12 (phospho-BAD and total BAD); format: cell-based; settings: Homo sapiens, 2 h
Experimental: The assay for determination of the antiproliferative activity of multiple Pim inhibitors in the KMS-12-BM myeloma cells measures levels of phospho-BAD and total BAD. It was conducted as follows: […] The cells were then incubated overnight at 37° C., 5% CO2. […] This dilution in DMSO was then diluted again into cell growth medium. […] The cell plates were then incubated with compound for 2 hours at 37° C., 5% CO2. After a two h incubation, the compound-containing medium was removed. […] The cell plates containing lysis buffer were then immediately stored at -70° C. These prepared lysates were then assayed for phospho and total BAD according to the manufacturer's protocols (Meso Scale Diagnostics, Cat#[…]-3 & #[…]-3). The plates were read on the MSD Sector Imager 6000, and results were calculated according to the assay protocols ((% Phosphoprotein=((2×Phospho signal)/(Phospho signal+Total signal))×100)).

[1] = molecular target: full length recombinant Pim-2 (Homo sapiens (Human), UniProt Q9P1W9); assay: Pim enzyme assay (HTRF, phosphorylation of biotinylated-BAD (S112) peptide), Pim-2; format: biochemical; settings: read-out: Pim2_IC50
[2] = molecular target: full length recombinant Pim-1 (Homo sapiens (Human), UniProt P11309); assay: Pim enzyme assay (HTRF, phosphorylation of biotinylated-BAD (S112) peptide), Pim-1; format: biochemical
[3] = test system: Pim-1 stably transfected U2OS human osteogenic sarcoma line; assay: Pim cell assay U2OS (phospho-BAD normalized against total BAD), Pim-1 transfected; format: cell-based; settings: Homo sapiens, U2OS
[4] = molecular target: full length recombinant Pim-3 (Homo sapiens (Human), UniProt Q86V86); assay: Pim enzyme assay (HTRF, phosphorylation of biotinylated-BAD (S112) peptide), Pim-3; format: biochemical; settings: Pim-3 enzyme assay; read-out: Pim3 IC50
Method in brief: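 Full-length recombinant Pim-3 phosphorylated biotinylated BAD (S112) peptide in 60 mM Hepes pH 7.0, 0.05% BSA, 2 mM DTT for 1 h 30 min at 22 °C. After EDTA stop, HTRF was read with Eu anti-phospho-BAD and streptavidin-APC. IC50 came from 4-parameter logistic fit of percent-of-control values.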

[5] = test system: Pim-2 stably transfected U2OS human osteogenic sarcoma line; assay: Pim cell assay U2OS (phospho-BAD normalized against total BAD), Pim-2 transfected; format: cell-based; settings: Homo sapiens; U2OS cells, Pim-2 transfected; read-out: U2OS Pim2_Cell_IC50
[6] = HTRF, 10-point curve, high dose 1 uM, 45 min at RT
[7] = HTRF, 10-point curve, high dose 1 uM, 2 h at RT, read-out: Pim_1_IC50
[8] = Pim-1 enzyme assay, read-out: Pim_1_IC50
[9] = read-out: U2OS Pim1_Cell_IC50, U2OS cells, Pim-1 transfected

Chain of full length recombinant Pim-1 (P11309 whole entry): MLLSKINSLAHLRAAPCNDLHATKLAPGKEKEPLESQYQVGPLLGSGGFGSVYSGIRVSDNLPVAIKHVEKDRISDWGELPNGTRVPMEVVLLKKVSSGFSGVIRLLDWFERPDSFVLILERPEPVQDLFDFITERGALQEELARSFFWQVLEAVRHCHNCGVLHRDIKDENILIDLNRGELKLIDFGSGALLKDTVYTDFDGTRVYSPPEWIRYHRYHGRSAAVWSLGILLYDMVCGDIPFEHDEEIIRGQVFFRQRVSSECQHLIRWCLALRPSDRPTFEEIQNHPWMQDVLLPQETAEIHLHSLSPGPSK
Chain of full length recombinant Pim-2 (Q9P1W9 whole entry): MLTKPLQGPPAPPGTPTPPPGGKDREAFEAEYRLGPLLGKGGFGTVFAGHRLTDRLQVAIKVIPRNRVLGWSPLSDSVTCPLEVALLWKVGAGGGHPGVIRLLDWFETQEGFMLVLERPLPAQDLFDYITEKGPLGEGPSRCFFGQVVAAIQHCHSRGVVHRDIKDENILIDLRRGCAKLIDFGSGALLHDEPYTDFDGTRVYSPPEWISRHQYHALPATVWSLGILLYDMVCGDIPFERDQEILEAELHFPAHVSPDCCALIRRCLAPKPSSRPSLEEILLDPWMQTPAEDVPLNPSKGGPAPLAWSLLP

Structure (SMILES) | IC50 (KMS-12-BM myeloma cells; read-out: KMS12_IC50) [µM] | IC50 [1, 6] [nM] | IC50 [2, 7] [nM] | IC50 ([1]; Pim-2 enzyme assay) [nM] | IC50 [4] [nM] | IC50 [2, 8] [nM] | IC50 ([3]; read-out: U2OS Pim1_Cell_IC50) [nM] | IC50 [5] [nM] | other results
CC(C)Nc1nccc(-c2c[nH]c3ccc(-c4nnc(NC(C)C)o4)cc23)n1 [Example 287, N-isopropyl-5-(3-(2-(isopropylamino)pyrimidin-4-yl)-1H-indol-5-yl)-1,3,4-oxadiazol-2-amine] | – | – | 4.15 | – | – | – | – | – | IC50 (KMS-12-BM myeloma cells; read-out: KMS12_IC50 (uM)): 1.56 µM; IC50 [1]: 11.1 nM
CC(C)Nc1nnc(-c2ccc3[nH]cc(-c4cc(=O)[nH]c(C5CC5)n4)c3c2)o1 [Example 300, 2-cyclopropyl-6-(5-(5-((1-methylethyl)amino)-1,3,4-oxadiazol-2-yl)-1H-indol-3-yl)-4(3H)-pyrimidinone] | 1.44 | 2.24 | 1.2 | – | – | – | – | – | –
c1ccc(-c2nnc(-c3ccc4[nH]cc(-c5cncc(C6CC6)n5)c4c3)o2)cc1 [Example 254, 3-(6-cyclopropyl-2-pyrazinyl)-5-(5-phenyl-1,3,4-oxadiazol-2-yl)-1H-indole] | – | – | – | > 1000 | 138 | 175 | > 15800 | 808 | –
Nc1nnc(-c2ccc3[nH]cc(-c4cncc(O[C@@H]5CCCNC5)n4)c3c2)o1 [Example 99, 5-(3-(6-((3R)-3-piperidinyloxy)-2-pyrazinyl)-1H-indol-5-yl)-1,3,4-oxadiazol-2-amine] | – | – | – | 12.9 | 12.4 | 6.77 | – | > 31600 | IC50 [3, 9]: 12200 nM
CC(C)Nc1nnc(-c2cc3c(-c4nccc(C5CC5)n4)c[nH]c3cc2F)o1 [Example 279, 5-(3-(4-cyclopropyl-2-pyrimidinyl)-6-fluoro-1H-indol-5-yl)-N-(1-methylethyl)-1,3,4-oxadiazol-2-amine] | 0.746 | 1.88 | 2.38 | – | – | – | – | – | –
Nc1nnc(-c2ccc3[nH]cc(-c4nccc(N5CCC[C@@H](O)C5)n4)c3c2)o1 (stereo in doubt) [Example 104, 1-(2-(5-(5-amino-1,3,4-oxadiazol-2-yl)-1H-indol-3-yl)-4-pyrimidinyl)-3-piperidinol] | – | – | – | 7.73 | 5.1 | 11.4 | 2130 | 15200 | –
Nc1nnc(-c2ccc3[nH]cc(-c4cccc(F)c4F)c3c2)o1 [Example 78, 5-(3-(2,3-difluorophenyl)-1H-indol-5-yl)-1,3,4-oxadiazol-2-amine] | – | – | – | 164 | 54.3 | 103 | 1110 | 18700 | –

Continued, in another order:

IC50 (KMS-12-BM myeloma cells; read-out: KMS12_IC50) [µM] | IC50 [1, 6] [nM] | IC50 [2, 7] [nM] | IC50 ([1]; Pim-2 enzyme assay) [nM] | IC50 [4] [nM] | IC50 [2, 8] [nM] | Structure (SMILES) | IC50 ([3]; read-out: U2OS Pim1_Cell_IC50) [nM] | IC50 [5] [nM] | other results
1.44 | 25.6 | 53.1 | – | – | – | CC(C)Nc1nnc(-c2ccc3[nH]cc(NC(=O)C4CC4)c3c2)o1 [Example 291, N-(5-(5-(isopropylamino)-1,3,4-oxadiazol-2-yl)-1H-indol-3-yl)cyclopropanecarboxamide] | – | – | –
4.2 | 14.3 | 2.44 | – | – | – | CC(C)Nc1nc(-c2c[nH]c3ccc(-c4nnc(NC(C)C)o4)cc23)cc(=O)[nH]1 [Example 288, 2-(isopropylamino)-6-(5-(5-(isopropylamino)-1,3,4-oxadiazol-2-yl)-1H-indol-3-yl)pyrimidin-4(3H)-one] | – | – | –
1.28 | 2.15 | 1.19 | – | – | – | CC(C)Nc1nnc(-c2ccc3[nH]cc(-c4ncc(C(N)=O)c(C5CC5)n4)c3c2)o1 [Example 281, 4-cyclopropyl-2-(5-(5-((1-methylethyl)amino)-1,3,4-oxadiazol-2-yl)-1H-indol-3-yl)-5-pyrimidinecarboxamide] | – | – | –
0.945 | 4.65 | 2.54 | – | – | – | CC(C)Nc1nnc(-c2ccc3[nH]cc(-c4ccnc(C5CC5)n4)c3c2)o1 [Example 301, 5-(3-(2-cyclopropyl-4-pyrimidinyl)-1H-indol-5-yl)-N-(1-methylethyl)-1,3,4-oxadiazol-2-amine] | – | – | –
3.83 | 8.04 | – | – | – | – | CC(C)Nc1nnc(-c2cc3c(-c4cncc(C5CC5)n4)c[nH]c3cc2F)o1 [Example 280, 5-(3-(6-cyclopropyl-2-pyrazinyl)-6-fluoro-1H-indol-5-yl)-N-(1-methylethyl)-1,3,4-oxadiazol] | – | – | IC50 [2]: 4.71 nM
– | – | – | 57 | 7.68 | 22.8 | CC(C)Oc1ccc(F)c(-c2c[nH]c3ccc(-c4nnc(N)o4)nc23)c1 [Example 125, 5-(3-(2-fluoro-5-(1-methylethoxy)phenyl)-1H-pyrrolo[3,2-b]pyridin-5-yl)-1,3,4-oxadiazol-2-amine] | – | 4430 | IC50 [3, 9]: 109 nM
– | – | – | 39 | 20.5 | 39.6 | Nc1nnc(-c2ccc3[nH]cc(-c4cccc(-c5ccccc5)n4)c3c2)s1 [Example 130, 5-(3-(6-phenyl-2-pyridinyl)-1H-indol-5-yl)-1,3,4-thiadiazol-2-amine] | 7880 | > 31600 | –
– | – | – | 35.3 | 5.73 | 15.2 | CCCOc1cccc(-c2c[nH]c3ccc(-c4nnc(N)s4)cc23)n1 [Example 165, 5-(3-(6-propoxy-2-pyridinyl)-1H-indol-5-yl)-1,3,4-thiadiazol-2-amine] | 231 | 4230 | –
